Data: publication PMC6979384, “Characterization of the plant homeodomain (PHD) reader family for their histone tail interactions” (Epigenetics & Chromatin, 2020)
Where no end group is shown, it is not given here. [ ]: non-standard residue; d: D form. pS = N[C@@H](COP(=O)(O)O)C(=O)O

Legend:
Assay in all cases: Histone peptide microarray
Assay type in all cases: binding, human
[1] = tested on: AIRE (PP); settings: arrays performed twice, n of 4; for Array Heatmap value (peptide array binding signal): AIRE (PP), GST-tagged
Summary of the method: (§1)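 GST-PHD reader, 0.5 μM, probed on 293-peptide histone array (single/combinatorial PTMs); optimized array protocol; signal = mean ± SD, n = 4.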

[2] = tested on: BAZ2B; settings: arrays performed twice, n of 4; for Array Heatmap value (peptide array binding signal): BAZ2B, GST-tagged
Summary of the method: as §1

[3] = tested on: BPTF (PB); settings: arrays performed twice, n of 4; for Array Heatmap value (peptide array binding signal): BPTF (PB), GST-tagged
Summary of the method: as §1

[4] = tested on: CHD4 (PPCC); settings: arrays performed twice, n of 4; for Array Heatmap value (peptide array binding signal): CHD4 (PPCC), GST-tagged
Summary of the method: as §1

[5] = tested on: CHD5 (PCC); settings: arrays performed twice, n of 4; for Array Heatmap value (peptide array binding signal): CHD5 (PCC), GST-tagged
Summary of the method: as §1

[6] = tested on: CHD5 (PPCC); settings: arrays performed twice, n of 4; for Array Heatmap value (peptide array binding signal): CHD5 (PPCC), GST-tagged
Summary of the method: as §1

[7] = tested on: DIDO1; settings: arrays performed twice, n of 4; for Array Heatmap value (peptide array binding signal): DIDO1, GST-tagged
Summary of the method: as §1

[8] = tested on: DPF2 (PPC2W2); settings: arrays performed twice, n of 4; for Array Heatmap value (peptide array binding signal): DPF2 (PPC2W2), GST-tagged
Summary of the method: as §1

[9] = tested on: ING1; settings: arrays performed twice, n of 4; for Array Heatmap value (peptide array binding signal): ING1, GST-tagged
Summary of the method: as §1

[10] = tested on: ING2; settings: arrays performed twice, n of 4; for Array Heatmap value (peptide array binding signal): ING2, GST-tagged
Summary of the method: as §1

[11] = tested on: ING3; settings: arrays performed twice, n of 4; for Array Heatmap value (peptide array binding signal): ING3, GST-tagged
Summary of the method: as §1

[12] = tested on: ING4; settings: arrays performed twice, n of 4; for Array Heatmap value (peptide array binding signal): ING4, GST-tagged
Summary of the method: as §1

[13] = tested on: ING5; settings: arrays performed twice, n of 4; for Array Heatmap value (peptide array binding signal): ING5, GST-tagged
Summary of the method: as §1

[14] = tested on: KDM4C (TTP); settings: arrays performed twice, n of 4; for Array Heatmap value (peptide array binding signal): KDM4C (TTP), GST-tagged
Summary of the method: as §1

[15] = tested on: KDM5A (1); settings: arrays performed twice, n of 4; for Array Heatmap value (peptide array binding signal): KDM5A (1), GST-tagged
Summary of the method: as §1

[16] = tested on: KDM5A (3); settings: arrays performed twice, n of 4; for Array Heatmap value (peptide array binding signal): KDM5A (3), GST-tagged
Summary of the method: as §1

[17] = tested on: KDM5B (1); settings: arrays performed twice, n of 4; for Array Heatmap value (peptide array binding signal): KDM5B (1), GST-tagged
Summary of the method: as §1

[18] = tested on: KDM5B (3); settings: arrays performed twice, n of 4; for Array Heatmap value (peptide array binding signal): KDM5B (3), GST-tagged
Summary of the method: as §1

[19] = tested on: KDM7A; settings: arrays performed twice, n of 4; for Array Heatmap value (peptide array binding signal): KDM7A, GST-tagged
Summary of the method: as §1

[20] = tested on: MLL5; settings: arrays performed twice, n of 4; for Array Heatmap value (peptide array binding signal): MLL5, GST-tagged
Summary of the method: as §1

[21] = tested on: MORC3 (CW); settings: arrays performed twice, n of 4; for Array Heatmap value (peptide array binding signal): MORC3 (CW), GST-tagged
Summary of the method: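 Steps: express and purify GST-tagged PHD reader; incubate 0.5 μM protein on a peptide microarray (293 histone peptides, single or combined PTMs) following an optimized protocol; average signal across 4 replicates.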

[22] = tested on: PHF13; settings: arrays performed twice, n of 4; for Array Heatmap value (peptide array binding signal): PHF13, GST-tagged
Summary of the method: as §1

[23] = tested on: PHF21A; settings: arrays performed twice, n of 4; for Array Heatmap value (peptide array binding signal): PHF21A, GST-tagged
Summary of the method: as §1

[24] = tested on: PHF23; settings: arrays performed twice, n of 4; for Array Heatmap value (peptide array binding signal): PHF23, GST-tagged
Summary of the method: as §1

[25] = tested on: PHF2; settings: arrays performed twice, n of 4; for Array Heatmap value (peptide array binding signal): PHF2, GST-tagged
Summary of the method: as §1

[26] = tested on: PHF8; settings: arrays performed twice, n of 4; for Array Heatmap value (peptide array binding signal): PHF8, GST-tagged
Summary of the method: as §1

[27] = tested on: PHRF1 (RP); settings: arrays performed twice, n of 4; for Array Heatmap value (peptide array binding signal): PHRF1 (RP), GST-tagged
Summary of the method: as §1

[28] = tested on: RAG2; settings: arrays performed twice, n of 4; for Array Heatmap value (peptide array binding signal): RAG2, GST-tagged
Summary of the method: as §1

[29] = tested on: SP140L; settings: arrays performed twice, n of 4; for Array Heatmap value (peptide array binding signal): SP140L, GST-tagged
Summary of the method: as §1

[30] = tested on: TAF3; settings: arrays performed twice, n of 4; for Array Heatmap value (peptide array binding signal): TAF3, GST-tagged
Summary of the method: as §1

[31] = tested on: TRIM66 (PB); settings: arrays performed twice, n of 4; for Array Heatmap value (peptide array binding signal): TRIM66 (PB), GST-tagged
Summary of the method: as §1

[32] = histone peptide array, GST-tagged reader
[33] = histone peptide array, GST-tagged reader, PB = PHD + Bromodomain
[34] = histone peptide array, GST-tagged reader, PPCC = Dual PHD + Dual Chromodomain

Substance: H4K12me1: H4 1-23 [Peptide H4K12me1]
- Array Heatmap value (peptide array binding signal) [1]: 0.4018
- Array Heatmap value (peptide array binding signal) [2]: 0.3991
- Array Heatmap value (peptide array binding signal) [3]: 0.2963
- Array Heatmap value (peptide array binding signal) [4]: 0.5189
- Array Heatmap value (peptide array binding signal) [5]: 0.7543
- Array Heatmap value (peptide array binding signal) [6]: 0.4573
- Array Heatmap value (peptide array binding signal) [7]: 0.5928
- Array Heatmap value (peptide array binding signal) [8]: 0.6545
- Array Heatmap value (peptide array binding signal) [9]: 0.4711
- Array Heatmap value (peptide array binding signal) [10]: 0.5919
- Array Heatmap value (peptide array binding signal) [11]: 0.3932
- Array Heatmap value (peptide array binding signal) [12]: 0.3881
- Array Heatmap value (peptide array binding signal) [13]: 0.2899
- Array Heatmap value (peptide array binding signal) [14]: 0.4116
- Array Heatmap value (peptide array binding signal) [15]: 0.4194
- Array Heatmap value (peptide array binding signal) [16]: 0.3966
- Array Heatmap value (peptide array binding signal) [17]: 0.6336
- Array Heatmap value (peptide array binding signal) [18]: 0.384
- Array Heatmap value (peptide array binding signal) [19]: 0.3046
- Array Heatmap value (peptide array binding signal) [20]: 0.4865
- Array Heatmap value (peptide array binding signal) [21]: 0.309
- Array Heatmap value (peptide array binding signal) [22]: 0.5207
- Array Heatmap value (peptide array binding signal) [23]: 0.4184
- Array Heatmap value (peptide array binding signal) [24]: 0.4708
- Array Heatmap value (peptide array binding signal) [25]: 0.4095
- Array Heatmap value (peptide array binding signal) [26]: 0.3037
- Array Heatmap value (peptide array binding signal) [27]: 0.3919
- Array Heatmap value (peptide array binding signal) [28]: 0.2114
- Array Heatmap value (peptide array binding signal) [29]: 0.3238
- Array Heatmap value (peptide array binding signal) [30]: 0.2302
- Array Heatmap value (peptide array binding signal) [31]: 0.515

Substance: H3.3 (27-45): H3.3 27-45 (KSAPSTGGVKKPHRYRPGT; UniProt P84243 28-46, looked up, fragment)
- Array Heatmap signal, AIRE (PP) [1, 32]: 0.4994
- Array Heatmap signal, BAZ2B [2, 32]: 0.4692
- Array Heatmap signal, BPTF (PB) [3, 33]: 0.34
- Array Heatmap signal, CHD4 (PPCC) [4, 34]: 0.5867
- Array Heatmap signal, CHD5 (PCC) ([5]; histone peptide array, GST-tagged reader, PCC = PHD + Dual Chromodomain): 0.7947
- Array Heatmap signal, CHD5 (PPCC) [6, 34]: 0.5478
- Array Heatmap signal, DIDO1 [7, 32]: 0.7133
- Array Heatmap signal, DPF2 (PPC2W2) ([8]; histone peptide array, GST-tagged reader, PPC2W2 = Dual PHD + C2W2-type Zn-finger): 0.6084
- Array Heatmap signal, ING1 [9, 32]: 0.4846
- Array Heatmap signal, ING2 [10, 32]: 0.588
- Array Heatmap signal, ING3 [11, 32]: 0.4546
- Array Heatmap signal, ING4 [12, 32]: 0.4566
- Array Heatmap signal, ING5 [13, 32]: 0.3478
- Array Heatmap signal, KDM4C (TTP) ([14]; histone peptide array, GST-tagged reader, TTP = Tandem Tudor domain + PHD): 0.5199
- Array Heatmap signal, KDM5A (1) [15, 32]: 0.4676
- Array Heatmap signal, KDM5A (3) [16, 32]: 0.405
- Array Heatmap signal, KDM5B (1) [17, 32]: 0.6276
- Array Heatmap signal, KDM5B (3) [18, 32]: 0.4762
- Array Heatmap signal, KDM7A [19, 32]: 0.4316
- Array Heatmap signal, MLL5 [20, 32]: 0.5451
- Array Heatmap signal, MORC3 (CW) ([21]; histone peptide array, GST-tagged reader, CW = CW-type Zn-finger): 0.3459
- Array Heatmap signal, PHF13 [22, 32]: 0.5824
- Array Heatmap signal, PHF21A [23, 32]: 0.4761
- Array Heatmap signal, PHF23 [24, 32]: 0.5188
- Array Heatmap signal, PHF2 [25, 32]: 0.4329
- Array Heatmap signal, PHF8 [26, 32]: 0.3699
- Array Heatmap signal, PHRF1 (RP) [27, 32]: 0.4032
- Array Heatmap signal, RAG2 [28, 32]: 0.2569
- Array Heatmap signal, SP140L [29, 32]: 0.3705
- Array Heatmap signal, TAF3 [30, 32]: 0.2584
- Array Heatmap signal, TRIM66 (PB) [31, 33]: 0.5678

Substance: H2AS1p + K5ac: H2A 1-17 ([pS]GRGK(Ac)QGGKARAKAKTR; UniProt P0C0S8 2-18, looked up, fragment)
- Array Heatmap value (peptide array binding signal) [1]: 0.2932
- Array Heatmap value (peptide array binding signal) [2]: 0.3559
- Array Heatmap value (peptide array binding signal) [3]: 0.2697
- Array Heatmap value (peptide array binding signal) [4]: 0.4644
- Array Heatmap value (peptide array binding signal) [5]: 0.6294
- Array Heatmap value (peptide array binding signal) [6]: 0.3972
- Array Heatmap value (peptide array binding signal) [7]: 0.6049
- Array Heatmap value (peptide array binding signal) [8]: 0.5432
- Array Heatmap value (peptide array binding signal) [9]: 0.485
- Array Heatmap value (peptide array binding signal) [10]: 0.5878
- Array Heatmap value (peptide array binding signal) [11]: 0.3526
- Array Heatmap value (peptide array binding signal) [12]: 0.3411
- Array Heatmap value (peptide array binding signal) [13]: 0.2521
- Array Heatmap value (peptide array binding signal) [14]: 0.3213
- Array Heatmap value (peptide array binding signal) [15]: 0.3412
- Array Heatmap value (peptide array binding signal) [16]: 0.4071
- Array Heatmap value (peptide array binding signal) [17]: 0.5673
- Array Heatmap value (peptide array binding signal) [18]: 0.3803
- Array Heatmap value (peptide array binding signal) [19]: 0.2299
- Array Heatmap value (peptide array binding signal) [20]: 0.4623
- Array Heatmap value (peptide array binding signal) [21]: 0.3086
- Array Heatmap value (peptide array binding signal) [22]: 0.4493
- Array Heatmap value (peptide array binding signal) [23]: 0.3599
- Array Heatmap value (peptide array binding signal) [24]: 0.4819
- Array Heatmap value (peptide array binding signal) [25]: 0.5004
- Array Heatmap value (peptide array binding signal) [26]: 0.2793
- Array Heatmap value (peptide array binding signal) [27]: 0.3697
- Array Heatmap value (peptide array binding signal) [28]: 0.2266
- Array Heatmap value (peptide array binding signal) [29]: 0.2923
- Array Heatmap value (peptide array binding signal) [30]: 0.2127
- Array Heatmap value (peptide array binding signal) [31]: 0.4856
